The source of these data is ChEMBL document CHEMBL1201862, “PubChem BioAssay data set” (2004).

Values joined by “and” are separate entries in the source; they are usually repeats but may differ in a detail not shown here. Equal entries are not always repeated. Active and inactive are the calls of the source.

The target in assay [1] is T1, Mitochondrial peptide methionine sulfoxide reductase (Bos taurus, UniProt P54149).
T1 sequence (P54149 whole entry): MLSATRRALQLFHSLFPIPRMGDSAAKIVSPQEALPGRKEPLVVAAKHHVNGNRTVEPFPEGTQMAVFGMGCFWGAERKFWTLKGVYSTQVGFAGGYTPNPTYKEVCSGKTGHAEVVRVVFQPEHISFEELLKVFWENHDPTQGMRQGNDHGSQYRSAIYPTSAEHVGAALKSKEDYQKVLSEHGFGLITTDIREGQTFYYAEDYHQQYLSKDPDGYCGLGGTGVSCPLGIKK
The experiment in a line: Absorbance-based biochemical high throughput dose response assay for activators of Methionine sulfoxide reductase A (MsrA). In kind it is functional.

Assay [2] deals with T2, Apoptotic protease-activating factor 1 (Homo sapiens, UniProt O14727).
T2 sequence (O14727 whole entry): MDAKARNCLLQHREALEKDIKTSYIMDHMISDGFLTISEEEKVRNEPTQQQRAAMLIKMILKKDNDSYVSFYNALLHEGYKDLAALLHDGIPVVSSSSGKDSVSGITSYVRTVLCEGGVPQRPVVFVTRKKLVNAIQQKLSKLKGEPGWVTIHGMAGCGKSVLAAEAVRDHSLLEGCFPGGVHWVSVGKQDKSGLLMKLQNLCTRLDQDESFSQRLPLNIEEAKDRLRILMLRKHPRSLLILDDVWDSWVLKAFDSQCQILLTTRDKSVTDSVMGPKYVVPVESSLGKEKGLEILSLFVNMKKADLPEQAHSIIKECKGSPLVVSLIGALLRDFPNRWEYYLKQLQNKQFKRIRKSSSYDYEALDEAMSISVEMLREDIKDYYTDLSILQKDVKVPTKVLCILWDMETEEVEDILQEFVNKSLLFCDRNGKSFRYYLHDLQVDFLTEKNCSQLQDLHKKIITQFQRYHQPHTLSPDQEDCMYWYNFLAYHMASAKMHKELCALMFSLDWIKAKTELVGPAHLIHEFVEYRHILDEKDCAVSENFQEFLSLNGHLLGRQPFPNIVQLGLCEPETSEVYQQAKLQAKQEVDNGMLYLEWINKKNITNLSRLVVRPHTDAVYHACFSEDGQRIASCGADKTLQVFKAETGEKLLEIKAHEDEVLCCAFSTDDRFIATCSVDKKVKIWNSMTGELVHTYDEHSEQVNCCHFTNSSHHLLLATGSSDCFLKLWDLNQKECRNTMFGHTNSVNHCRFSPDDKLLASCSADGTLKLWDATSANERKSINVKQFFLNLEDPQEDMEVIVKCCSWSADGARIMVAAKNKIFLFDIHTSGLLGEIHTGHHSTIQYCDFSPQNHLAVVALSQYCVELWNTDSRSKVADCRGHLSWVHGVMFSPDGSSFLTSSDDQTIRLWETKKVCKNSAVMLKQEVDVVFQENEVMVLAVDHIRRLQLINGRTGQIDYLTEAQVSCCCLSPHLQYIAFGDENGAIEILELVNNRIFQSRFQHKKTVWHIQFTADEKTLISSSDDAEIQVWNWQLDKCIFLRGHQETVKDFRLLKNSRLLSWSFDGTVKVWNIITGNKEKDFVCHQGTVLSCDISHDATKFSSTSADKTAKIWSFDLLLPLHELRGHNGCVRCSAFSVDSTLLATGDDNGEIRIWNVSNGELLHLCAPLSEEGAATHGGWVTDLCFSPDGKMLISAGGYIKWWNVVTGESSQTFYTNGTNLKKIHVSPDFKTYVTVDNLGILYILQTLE
The experiment in a line: SAR analysis of small molecule Activators of Apaf-1 in a Fluorescent assay. The assay is classed as functional. The note with it: read-out: EC50_Mean.

Assay [3] addresses Mitogen-activated protein kinase 13 (Homo sapiens, UniProt O15264). The assay is classed as functional.
The target in assay [4] is Dual specificity tyrosine-phosphorylation-regulated kinase 1B (Homo sapiens, UniProt Q9Y463). The experiment in a line: Navigating the Kinome. Panel member name: DYRK1B. In kind it is functional.
Sequence of Dual specificity tyrosine-phosphorylation-regulated kinase 1B (Q9Y463 whole entry): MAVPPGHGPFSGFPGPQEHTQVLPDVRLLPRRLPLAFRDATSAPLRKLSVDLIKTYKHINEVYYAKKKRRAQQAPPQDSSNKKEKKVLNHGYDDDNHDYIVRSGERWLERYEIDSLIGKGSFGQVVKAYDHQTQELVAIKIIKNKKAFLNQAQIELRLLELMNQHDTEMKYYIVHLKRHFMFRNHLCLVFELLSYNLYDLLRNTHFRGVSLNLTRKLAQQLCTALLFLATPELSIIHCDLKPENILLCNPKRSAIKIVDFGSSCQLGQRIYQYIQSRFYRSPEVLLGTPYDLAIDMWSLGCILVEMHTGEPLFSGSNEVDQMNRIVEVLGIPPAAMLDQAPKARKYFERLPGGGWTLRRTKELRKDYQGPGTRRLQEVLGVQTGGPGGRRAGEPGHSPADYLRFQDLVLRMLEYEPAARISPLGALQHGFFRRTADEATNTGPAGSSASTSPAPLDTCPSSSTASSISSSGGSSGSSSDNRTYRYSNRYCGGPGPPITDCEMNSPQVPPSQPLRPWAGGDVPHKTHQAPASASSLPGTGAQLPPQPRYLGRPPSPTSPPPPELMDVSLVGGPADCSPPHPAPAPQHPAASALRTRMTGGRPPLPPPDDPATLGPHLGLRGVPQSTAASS
The target of assay [5] is Serine/threonine-protein kinase 3 (Homo sapiens, UniProt Q13188). The assay is classed as functional.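 Note: measured as one member of a kinome-wide kinase panel.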
Sequence of Serine/threonine-protein kinase 3 (Q13188 whole entry): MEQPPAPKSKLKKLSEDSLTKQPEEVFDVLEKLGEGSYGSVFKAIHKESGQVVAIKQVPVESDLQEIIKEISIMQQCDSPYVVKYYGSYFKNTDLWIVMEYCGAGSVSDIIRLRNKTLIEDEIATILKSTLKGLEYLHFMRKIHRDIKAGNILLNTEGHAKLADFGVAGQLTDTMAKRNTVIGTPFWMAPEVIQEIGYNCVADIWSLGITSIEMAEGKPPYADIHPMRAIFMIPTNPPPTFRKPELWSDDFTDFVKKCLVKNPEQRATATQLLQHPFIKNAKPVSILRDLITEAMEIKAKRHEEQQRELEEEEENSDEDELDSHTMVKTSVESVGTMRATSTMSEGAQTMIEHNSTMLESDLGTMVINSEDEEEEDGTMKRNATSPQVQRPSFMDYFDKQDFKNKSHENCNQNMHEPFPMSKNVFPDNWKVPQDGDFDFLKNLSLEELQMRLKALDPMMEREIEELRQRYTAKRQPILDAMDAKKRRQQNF
For assay [6], the target named is Ras and Rab interactor 1/Tyrosine-protein kinase ABL1 (Homo sapiens, UniProt P00519+Q13671). The assay is classed as functional.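 Note: biochemical TR-FRET dose-response test measuring inhibition of binding between Rin1 and Abl proteins.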
Sequence of Ras and Rab interactor 1/Tyrosine-protein kinase ABL1 (P00519 whole entry): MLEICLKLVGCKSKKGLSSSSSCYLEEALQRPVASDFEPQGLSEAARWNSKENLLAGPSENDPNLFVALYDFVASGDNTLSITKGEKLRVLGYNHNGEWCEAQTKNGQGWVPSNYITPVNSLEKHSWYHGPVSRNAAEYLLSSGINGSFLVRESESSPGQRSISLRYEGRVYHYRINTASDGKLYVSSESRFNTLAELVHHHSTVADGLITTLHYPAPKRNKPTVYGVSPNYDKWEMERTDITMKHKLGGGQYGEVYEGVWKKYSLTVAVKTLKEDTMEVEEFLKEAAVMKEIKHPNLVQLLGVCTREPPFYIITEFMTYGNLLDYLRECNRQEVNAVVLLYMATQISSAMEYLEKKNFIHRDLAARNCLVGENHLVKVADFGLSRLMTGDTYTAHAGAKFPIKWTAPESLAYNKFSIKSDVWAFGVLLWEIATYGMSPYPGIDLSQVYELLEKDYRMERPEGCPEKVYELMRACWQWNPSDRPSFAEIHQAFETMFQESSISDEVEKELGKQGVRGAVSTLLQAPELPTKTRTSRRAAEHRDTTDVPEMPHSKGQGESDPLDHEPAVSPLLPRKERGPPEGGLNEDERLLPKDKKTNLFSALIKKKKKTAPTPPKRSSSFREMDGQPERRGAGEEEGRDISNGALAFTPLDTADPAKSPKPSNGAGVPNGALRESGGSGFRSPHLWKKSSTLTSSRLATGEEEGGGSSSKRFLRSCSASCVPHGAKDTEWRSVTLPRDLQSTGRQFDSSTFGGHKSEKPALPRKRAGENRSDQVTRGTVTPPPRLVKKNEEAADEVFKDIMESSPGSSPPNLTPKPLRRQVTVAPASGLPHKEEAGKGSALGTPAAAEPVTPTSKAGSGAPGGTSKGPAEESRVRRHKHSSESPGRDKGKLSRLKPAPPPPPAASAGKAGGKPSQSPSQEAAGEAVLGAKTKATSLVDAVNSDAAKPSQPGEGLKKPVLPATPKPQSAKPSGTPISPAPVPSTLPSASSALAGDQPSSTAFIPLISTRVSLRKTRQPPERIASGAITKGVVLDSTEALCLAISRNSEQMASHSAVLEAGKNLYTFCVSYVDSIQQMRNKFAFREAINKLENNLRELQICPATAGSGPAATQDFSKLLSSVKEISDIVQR
Sequence of Ras and Rab interactor 1/Tyrosine-protein kinase ABL1 (Q13671 whole entry): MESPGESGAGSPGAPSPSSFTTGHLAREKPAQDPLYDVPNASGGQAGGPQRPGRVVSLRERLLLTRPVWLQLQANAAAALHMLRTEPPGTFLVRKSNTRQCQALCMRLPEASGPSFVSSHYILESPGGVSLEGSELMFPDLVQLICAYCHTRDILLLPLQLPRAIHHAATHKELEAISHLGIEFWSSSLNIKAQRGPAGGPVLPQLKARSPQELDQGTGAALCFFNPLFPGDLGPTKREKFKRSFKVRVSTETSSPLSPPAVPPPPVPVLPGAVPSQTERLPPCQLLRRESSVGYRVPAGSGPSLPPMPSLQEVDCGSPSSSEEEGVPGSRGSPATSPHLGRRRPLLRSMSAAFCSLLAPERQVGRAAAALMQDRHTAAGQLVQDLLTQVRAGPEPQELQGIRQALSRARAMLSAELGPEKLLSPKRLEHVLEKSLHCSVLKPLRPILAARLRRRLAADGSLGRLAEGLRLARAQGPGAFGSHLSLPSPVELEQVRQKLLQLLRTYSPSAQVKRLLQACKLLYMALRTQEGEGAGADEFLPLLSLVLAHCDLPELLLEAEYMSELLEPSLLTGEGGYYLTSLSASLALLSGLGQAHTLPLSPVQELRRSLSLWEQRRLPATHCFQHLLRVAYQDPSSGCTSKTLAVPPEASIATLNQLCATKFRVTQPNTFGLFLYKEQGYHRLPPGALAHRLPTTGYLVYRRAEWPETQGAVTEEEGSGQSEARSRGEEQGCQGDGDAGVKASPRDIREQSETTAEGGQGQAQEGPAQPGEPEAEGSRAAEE
Assay [7] concerns the target DNA (cytosine-5)-methyltransferase 1 (Homo sapiens, UniProt P26358). The experiment in a line: inhibition of DNA methylation by DNMT1 – biochemical, fluorescent molecular beacon, confirmation (AID 602386). In kind it is functional.
In assay [8] the target is T3, Histone-lysine N-methyltransferase NSD2 (Homo sapiens, UniProt O96028).
T3 sequence (O96028 whole entry): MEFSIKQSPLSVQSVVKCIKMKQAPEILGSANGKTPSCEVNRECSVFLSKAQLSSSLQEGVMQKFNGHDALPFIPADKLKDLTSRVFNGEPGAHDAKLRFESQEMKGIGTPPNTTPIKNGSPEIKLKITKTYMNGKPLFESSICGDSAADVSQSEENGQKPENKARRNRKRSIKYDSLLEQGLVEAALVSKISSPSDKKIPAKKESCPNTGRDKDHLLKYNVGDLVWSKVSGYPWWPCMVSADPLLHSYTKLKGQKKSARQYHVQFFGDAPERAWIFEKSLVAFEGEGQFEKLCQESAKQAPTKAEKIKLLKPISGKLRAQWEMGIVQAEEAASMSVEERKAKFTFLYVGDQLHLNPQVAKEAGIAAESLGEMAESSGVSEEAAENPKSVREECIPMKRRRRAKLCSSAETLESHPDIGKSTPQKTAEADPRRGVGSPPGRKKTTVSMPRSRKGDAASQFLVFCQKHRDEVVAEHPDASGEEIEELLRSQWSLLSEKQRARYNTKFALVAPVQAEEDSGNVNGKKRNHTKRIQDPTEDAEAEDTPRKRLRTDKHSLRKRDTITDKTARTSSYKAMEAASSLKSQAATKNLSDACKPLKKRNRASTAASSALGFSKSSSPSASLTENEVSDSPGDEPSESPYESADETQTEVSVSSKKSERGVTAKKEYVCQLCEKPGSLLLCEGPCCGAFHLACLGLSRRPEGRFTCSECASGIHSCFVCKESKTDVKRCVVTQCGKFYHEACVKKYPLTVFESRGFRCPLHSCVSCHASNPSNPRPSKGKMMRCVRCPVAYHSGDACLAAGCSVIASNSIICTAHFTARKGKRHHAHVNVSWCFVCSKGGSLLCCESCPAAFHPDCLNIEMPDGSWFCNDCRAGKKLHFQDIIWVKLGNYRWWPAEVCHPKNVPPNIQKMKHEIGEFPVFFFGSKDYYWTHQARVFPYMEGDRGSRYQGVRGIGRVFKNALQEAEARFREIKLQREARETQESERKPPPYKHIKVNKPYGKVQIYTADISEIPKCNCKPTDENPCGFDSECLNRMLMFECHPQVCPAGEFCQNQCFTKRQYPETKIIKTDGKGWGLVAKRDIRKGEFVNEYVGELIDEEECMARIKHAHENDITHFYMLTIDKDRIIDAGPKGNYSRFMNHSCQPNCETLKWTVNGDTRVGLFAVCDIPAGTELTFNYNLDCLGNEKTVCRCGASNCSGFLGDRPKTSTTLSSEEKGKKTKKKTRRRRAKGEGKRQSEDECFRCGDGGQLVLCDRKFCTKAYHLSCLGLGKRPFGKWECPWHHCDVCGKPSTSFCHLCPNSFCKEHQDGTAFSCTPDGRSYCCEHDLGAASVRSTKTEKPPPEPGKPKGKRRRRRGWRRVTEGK
The assay is classed as biochemical.

Assay [9] concerns the target Serine/threonine-protein kinase PLK3 (Homo sapiens, UniProt Q9H4B4). In kind it is functional.
Assay [10] concerns the target Casein kinase II subunit alpha (Homo sapiens, UniProt P68400). The assay is classed as functional.
The nature of assay [11]: THP-1 cell cytotoxicity, cytotoxicity control, set 4 (AID 504911). The assay is classed as functional. The following applies: Mycobacterium tuberculosis.
Assay [12] in a line: Vero cell cytotoxicity, dose response, cytotoxicity control for M. tuberculosis growth inhibitor project, Vero cells, purified and synthesized compounds, set 4 (AID 504854). The assay is classed as functional. The following applies: Mycobacterium tuberculosis.
A short description of assay [13]: THP-1 cell cytotoxicity, dose response, cytotoxicity control, set 3 (AID 504852). The following applies: Mycobacterium tuberculosis. The assay is classed as functional.
For assay [14], the target named is Multidrug resistance protein CDR2 (Candida albicans (strain SC5314 / ATCC MYA-2876) (Yeast), UniProt P78595). The experiment in a line: blockers of Nile Red efflux by Candida CDR2 – S. cerevisiae AD1-8u, singleplex, Cherry Pick2 set, dose response (AID 623994). In kind it is functional. The following applies: read-out: EC50_MICROM.
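Throughout, for EC50 Mean: caspase-3 cleavage of fluorogenic Rh110 DEVD substrate downstream of apoptosome activation.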

Sequence of Mitogen-activated protein kinase 13 (O15264 whole entry): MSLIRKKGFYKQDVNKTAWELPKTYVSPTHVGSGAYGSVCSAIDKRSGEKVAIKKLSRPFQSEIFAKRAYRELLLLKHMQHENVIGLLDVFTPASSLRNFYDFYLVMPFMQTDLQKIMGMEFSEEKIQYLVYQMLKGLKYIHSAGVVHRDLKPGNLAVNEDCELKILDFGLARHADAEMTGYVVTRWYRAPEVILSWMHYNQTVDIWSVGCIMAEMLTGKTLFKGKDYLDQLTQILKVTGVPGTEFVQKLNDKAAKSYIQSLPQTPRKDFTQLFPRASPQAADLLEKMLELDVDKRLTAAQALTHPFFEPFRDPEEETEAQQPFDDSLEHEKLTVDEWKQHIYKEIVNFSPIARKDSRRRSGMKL
Sequence of Casein kinase II subunit alpha (P68400 whole entry): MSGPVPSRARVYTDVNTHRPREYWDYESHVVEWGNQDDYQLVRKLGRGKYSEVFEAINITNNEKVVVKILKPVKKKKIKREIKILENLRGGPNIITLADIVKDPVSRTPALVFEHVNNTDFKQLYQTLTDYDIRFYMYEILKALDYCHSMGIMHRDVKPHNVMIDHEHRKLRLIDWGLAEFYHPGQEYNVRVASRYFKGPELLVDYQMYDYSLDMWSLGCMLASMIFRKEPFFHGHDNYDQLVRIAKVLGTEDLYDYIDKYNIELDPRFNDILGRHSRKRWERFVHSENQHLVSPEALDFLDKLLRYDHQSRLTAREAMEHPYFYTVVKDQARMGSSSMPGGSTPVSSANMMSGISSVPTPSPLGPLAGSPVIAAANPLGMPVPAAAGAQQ
Sequence of Serine/threonine-protein kinase PLK3 (Q9H4B4 whole entry): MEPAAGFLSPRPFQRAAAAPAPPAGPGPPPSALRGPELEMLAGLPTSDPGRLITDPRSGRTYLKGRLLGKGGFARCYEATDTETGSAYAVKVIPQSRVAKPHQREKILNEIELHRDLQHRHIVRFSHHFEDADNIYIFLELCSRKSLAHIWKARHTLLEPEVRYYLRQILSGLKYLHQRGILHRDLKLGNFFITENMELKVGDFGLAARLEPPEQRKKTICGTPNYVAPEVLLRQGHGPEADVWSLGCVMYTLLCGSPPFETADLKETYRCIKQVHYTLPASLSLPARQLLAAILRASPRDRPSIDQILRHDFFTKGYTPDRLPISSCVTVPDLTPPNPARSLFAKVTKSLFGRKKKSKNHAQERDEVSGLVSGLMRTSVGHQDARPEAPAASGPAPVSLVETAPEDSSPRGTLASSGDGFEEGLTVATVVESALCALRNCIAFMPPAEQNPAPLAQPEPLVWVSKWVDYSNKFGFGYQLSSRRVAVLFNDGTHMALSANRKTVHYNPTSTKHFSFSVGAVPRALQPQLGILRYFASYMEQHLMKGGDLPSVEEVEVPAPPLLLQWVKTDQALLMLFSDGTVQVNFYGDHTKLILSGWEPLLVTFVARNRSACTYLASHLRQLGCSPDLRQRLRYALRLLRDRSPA

Regarding `O=c1[nH]c(=S)[nH]cc1Oc1ccc(Cl)cc1`, in assay [1], the EC50 is > 104 µM (inactive).

As to `COc1ccc(C)c(NCC(C)C(=O)O)c1` (centres undefined), the EC50 in assay [2] is > 100 µM (inactive).

In general, Ki refers to the dissociation constant of the complex between target and ligand, obtained from inhibition or displacement. `CCOc1nc(NC(=O)Cc2cc(OC)ccc2OC)cc(N)c1C#N`: the Ki in assay [3] is > 7.94 µM (inactive).

For the compound `CC(Oc1cc(-c2cnn(C3CCNCC3)c2)cnc1N)c1c(Cl)ccc(F)c1Cl` (centres undefined), the Ki in [4] is > 2.51 µM (inactive); in assay [5], 3.16 µM (active) and 794 nM (active).

A word on the IC50: it is the concentration that inhibits the measured activity by half. Take `CC[C@]12c3[nH]c4ccc(OC)cc4c3CCN1C(=O)C(CC(=O)NCc1cccc(C(F)(F)F)c1)C[C@@H]2C(=O)N1CCN(C(=O)c2ccco2)CC1` (some centres undefined): the IC50 in [6] was 20.1 µM (inactive).

A word on the AC50: it is the midpoint of the concentration-response curve, whichever way the signal moves. `N=C1/C(=C/c2coc3ccccc3c2=O)C(=O)N=C2SC(c3ccco3)=NN12`: the IC50 in assay [7] was 11.6 µM (active). The half-maximal activity concentration (AC50) in assay [8] is 4.93 µM (active).

With `Nc1csc(Nc2ccccc2)n1`, the Ki in [9] is 2.51 µM (active); in assay [10] it was 10 µM (active).

Usually CC50 stands for the concentration at which the toxic effect on the cells reaches its halfway point. For `CC(Sc1nc2ccccc2c(=O)[nH]1)C(=O)NC1CCCCC1` (centres undefined), the 50% cytotoxic concentration (CC50) in assay [11], in [12] and in assay [13] was > 100 µM (active) in each case.

For `O=C(NCCC1=CCCCC1)C1CCC(CNc2[nH]c(=S)nc3ccccc23)CC1` (centres undefined), the EC50 in assay [14] was 72.6 µM (active).
